Earlier results as cited in patent publication US6475716B1, “Method for preserving mammalian organs” (Biobank Co., Ltd., priority 2001, dated 2002).

Test system: cell membranes of the heart
Details: heart exposed to low temperature of 4° C. or ischemic injury

## OC[C@H]1O[C@H](O[C@H]2O[C@H](CO)[C@@H](O)[C@H](O)[C@H]2O)[C@H](O)[C@@H](O)[C@@H]1O [trehalose]
  protection of cell membranes of the heart: had the ability to protect cell membranes of the heart
